From paper PMC10654507, “A cleavable chimeric peptide with targeting and killing domains enhances LPS neutralization and antibacterial properties against multi-drug resistant E. coli” (Communications Biology, 2023)
Residues, ends and D or L forms follow the SMILES beside them.

Assays:
[1] = test system: E. coli, S. typhimurium and S. aureus; type: cell-based; details: tested S. aureus strains
Protocol: The minimum inhibitory concentration (MIC) and minimum bactericidal concentration (MBC) of peptides were determined by the microtiter broth dilution method according to Clinical and Laboratory Standards Institute (CLSI) guidelines. […] PBS was used as the negative control. […] The MBC value was calculated as the lowest concentration of peptides resulting in a 99.9% reduction of the original inoculum. All experiments were repeated three times.

[2] = test system: T1, furin; experiment: Cleavage of R7 by furin in vitro (RP-HPLC); type: in vitro ADME; details: human, recombinant human furin enzyme, furin 8 U/reaction, 25 °C, RP-HPLC peak area, read-out: Cleavage efficiency
T1 construct: purchased NEB (New England Biolabs) P8077
Protocol: Chimeric peptide R7 was treated with recombinant human furin enzyme (8 U/reaction; NEB P8077) in 50-μL reactions supplemented with in 20 mM HEPES, 0.1% Triton X-100, 1 mM CaCl2, 0.2 mM β-mercaptoethanol. The reaction mixtures were incubated at 25 °C for 65 h. An aliquot of 50 μL sample was taken at different time points, and analyzed by RP-HPLC or MALDI-TOF MS. […] The cleavage rate of R7 was calculated from the peak area as follows: Cleavage rate (%) = [(Area0 –Areat)/Area0] × 100, where 0 and t present digestion time[58].

[3] = test system: MDR E. coli CVCC195; experiment: Efficacy of different doses of R7 in mice challenged with MDR E. coli (survival); type: in vivo, mouse; design: key: 1 represents a mouse death; 0 represents no death; details: Supplementary Fig. 4 source data, MDR E. coli challenge
Protocol: Supplementary Figure 4. Eﬀicacy of different doses of cleavable chimeric peptide R7 in the mice
challenged with MDR E. coli. Mice were intraperitoneally injected with 3.5, 7 or 14 μmol/kg R7 at 0
h (five mice/group), followed by injection with MDR E. coli CVCC195 (0.5×10^9 CFU/mouse) at 6 h.
PBS was used as control. Survival was recorded for 7 d.

[4] = Detection of R7 in mouse blood after injection (RP-HPLC); type: in vivo; details: R7 10 ~ 50 mg/kg intraperitoneal, intravenous or subcutaneous, blood at 5, 30, 60 and 120 min
Protocol: To further study the cleavage efficiency of chimeric peptide R7, the mice were injected with R7 (10 ~ 50 mg/kg) by different routes, including intraperitoneal, intravenous or subcutaneous ones, respectively; blood was taken from the orbits at different time (5, 30, 60, and 120 min, respectively) and detected by RP-HPLC. […] Here are several conditions that may negatively impact RP-HPLC detection results: (i) R7 may bind to other proteins such as plasma protein and form aggregates; (ii) the concentration of R7 after cleavage was too low to detect target peptide by RP-HPLC; (iii) R7 may be degraded by some cellular proteases present in serum in vivo[45]. Furthermore, we used more sensitive liquid chromatograph mass spectrometer (LC-MS) to detect R7 and its possible degradation products in mice. […] We further used MALDI-TOF MS with higher resolution to analyze R7 degradation products in blood. As shown in Supplementary Table 5, R7 was cleaved into two dual-function fragments in the serum principally, including one from position 1 to 15 that can target LPS and the other mainly from position 18 to 35 that has antibacterial activity. […] In addtion, in vivo stability of peptides in blood has been well modeled by ex vivo stability in serum. […] In fact, several strategies have been proposed to improve the stability of AMPs. […]

## CSCC[C@H](NC(=O)[C@H](CCCNC(=N)N)NC(=O)[C@H](Cc1c[nH]c2ccccc12)NC(=O)[C@H](C)NC(=O)[C@H](Cc1c[nH]c2ccccc12)NC(=O)[C@H](CCCNC(=N)N)NC(=O)[C@H](Cc1c[nH]c2ccccc12)NC(=O)[C@H](C)NC(=O)[C@H](CCCCN)NC(=O)[C@H](Cc1ccccc1)NC(=O)[C@H](CCCNC(=N)N)NC(=O)[C@H](CCCNC(=N)N)NC(=O)[C@H](CCCCN)NC(=O)[C@H](CCCNC(=N)N)NC(=O)[C@H](CCCCN)NC(=O)[C@H](Cc1ccccc1)NC(=O)[C@H](Cc1ccccc1)NC(=O)[C@H](CO)NC(=O)[C@H](C)NC(=O)[C@H](CCCNC(=N)N)NC(=O)[C@@H](NC(=O)[C@H](CCCCN)NC(=O)[C@H](Cc1c[nH]c2ccccc12)NC(=O)[C@H](CCCNC(=N)N)NC(=O)CNC(=O)[C@H](CCC(N)=O)NC(=O)[C@@H](NC(=O)[C@@H](N)CCCNC(=N)N)C(C)C)C(C)C)C(=O)N[C@@H](CCCCN)C(=O)N[C@@H](CCCCN)C(=O)N[C@@H](CC(C)C)C(=O)N[C@@H](C)C(=O)N[C@@H](C)C(=O)N1CCC[C@H]1C(=O)N[C@@H](CO)C(=O)O [R7] (H-RVQGRWKVRASFFKRKRRFKAWRWAWRMKKLAAPS-OH)
[1]
  increase of activity compared to parent peptides (LBP14-RKRR and L7): ≥ 2 fold
[2]; digestion 4 h
  metabolised at 4 h: 14.5%
[2]; digestion 8 h
  metabolised at 8 h: 17.8%
[2]; digestion 18 h
  metabolised at 18 h: 29.5%
[2]; digestion 24 h
  metabolised at 24 h: 36.2%
[2]; digestion 30 h
  metabolised at 30 h: 42.5%
[2]; digestion 44 h
  metabolised at 44 h: 52.7%
[2]; digestion 53 h
  metabolised at 53 h: 57.4%
[2]; digestion 65 h
  metabolised at 65 h: 61.8%
[3]; 3.5 μmol/kg R7, day 1, one cell per mouse
  efficacy of different doses, survival, event: 1
[3]; 3.5 μmol/kg R7, day 7
  efficacy of different doses, survival, event: 0
[3]; 7 μmol/kg R7, day 1
  efficacy of different doses, survival, event: 0
[3]; 7 μmol/kg R7, day 2
  efficacy of different doses, survival, event: 0
[3]; 7 μmol/kg R7, day 3
  efficacy of different doses, survival, event: 0
[3]; 7 μmol/kg R7, day 4
  efficacy of different doses, survival, event: 0
[3]; 7 μmol/kg R7, day 7
  efficacy of different doses, survival, event: 0
[3]; 14 μmol/kg R7, day 1
  efficacy of different doses, survival, event: 0
[3]; 14 μmol/kg R7, day 2
  efficacy of different doses, survival, event: 0
[3]; 14 μmol/kg R7, day 3
  efficacy of different doses, survival, event: 0
[3]; 14 μmol/kg R7, day 5
  efficacy of different doses, survival, event: 0
[3]; 14 μmol/kg R7, day 7
  efficacy of different doses, survival, event: 0
[4]
  target peak in mouse blood: not detected
